Test results taken from ChEMBL document CHEMBL1138054, “Synthesis, molecular characterization, and biological activity of novel synthetic derivatives of chromen-4-one in human cancer cells” (J Med Chem, 2006).

Key:
[1] = system: PC-3; test: Antiproliferative activity against human PC3 cell line by MTT assay; format: functional, cell-based
[2] = system: BXPC-3; test: Antiproliferative activity against human BxPC3 cell line by MTT assay; format: functional, cell-based
[3] = system: BT-20; test: Antiproliferative activity against human BT20 cell line by MTT assay; format: functional, cell-based
[4] = molecular target: RAC-alpha serine/threonine-protein kinase (Homo sapiens, UniProt P31749); test: Inhibition of Akt by fluorescence polarization assay
RAC-alpha serine/threonine-protein kinase, sequence (P31749 whole entry): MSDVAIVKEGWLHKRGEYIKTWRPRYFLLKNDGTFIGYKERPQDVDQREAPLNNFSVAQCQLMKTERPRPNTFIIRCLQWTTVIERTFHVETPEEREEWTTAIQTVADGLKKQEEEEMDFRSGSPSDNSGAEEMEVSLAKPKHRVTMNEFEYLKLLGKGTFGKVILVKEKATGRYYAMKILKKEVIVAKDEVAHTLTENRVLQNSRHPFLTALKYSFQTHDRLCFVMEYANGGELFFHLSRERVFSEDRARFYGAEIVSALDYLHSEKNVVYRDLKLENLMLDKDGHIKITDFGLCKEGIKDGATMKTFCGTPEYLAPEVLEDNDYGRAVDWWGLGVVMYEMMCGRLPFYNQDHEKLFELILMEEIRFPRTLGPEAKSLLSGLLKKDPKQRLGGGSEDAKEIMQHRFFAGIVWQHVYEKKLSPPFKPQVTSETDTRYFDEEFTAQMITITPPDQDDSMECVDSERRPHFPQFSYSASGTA

[5] = system: COLO357; test: Antiproliferative activity against human COLO357 cell line by MTT assay; format: functional, cell-based

- IC50 [1]: 50 µM
- IC50 [2]: 30 µM
- IC50 [3]: 46 µM
- IC50 [4]: > 70 µM
- IC50 [5]: 50 µM
Compound: O=c1c(-c2ccc(O)cc2)coc2cc(O)cc(O)c12 [GENISTEIN]
